Test results taken from ChEMBL document CHEMBL1275492, “In vitro activity of ceftobiprole against pathogens from two phase 3 clinical trials of complicated skin and skin structure infections” (2008).
In brackets after ≈: the same amount, converted by molar mass.

Tests used:
Format in all cases: functional
Proteus penneri = test: Antibacterial activity against Proteus penneri obtained from complicated skin and skin structure infections by agar dilution method
Citrobacter braakii = test: Antibacterial activity against Citrobacter braakii obtained from complicated skin and skin structure infections by agar dilution method
Enterobacter cloacae = test: Antibacterial activity against Enterobacter cloacae obtained from complicated skin and skin structure infections by agar dilution method
Klebsiella oxytoca = test: Antibacterial activity against Klebsiella oxytoca obtained from complicated skin and skin structure infections by agar dilution method
Salmonella = test: Antibacterial activity against Salmonella spp. obtained from complicated skin and skin structure infections by agar dilution method
Pseudomonas aeruginosa = test: Antibacterial activity against Pseudomonas aeruginosa obtained from complicated skin and skin structure infections by agar dilution method
Morganella morganii = test: Antibacterial activity against Morganella morganii obtained from complicated skin and skin structure infections by agar dilution method
Klebsiella aerogenes = test: Antibacterial activity against Enterobacter aerogenes obtained from complicated skin and skin structure infections by agar dilution method
Proteus mirabilis = test: Antibacterial activity against Proteus mirabilis obtained from complicated skin and skin structure infections by agar dilution method
Acinetobacter baumannii = test: Antibacterial activity against Acinetobacter baumannii obtained from complicated skin and skin structure infections by agar dilution method
Proteus vulgaris = test: Antibacterial activity against Proteus vulgaris obtained from complicated skin and skin structure infections by agar dilution method
Serratia marcescens = test: Antibacterial activity against Serratia marcescens obtained from complicated skin and skin structure infections by agar dilution method
Escherichia coli = test: Antibacterial activity against Escherichia coli obtained from complicated skin and skin structure infections by agar dilution method
Klebsiella pneumoniae = test: Antibacterial activity against Klebsiella pneumoniae obtained from complicated skin and skin structure infections by agar dilution method
Pseudomonas fluorescens = test: Antibacterial activity against Pseudomonas fluorescens obtained from complicated skin and skin structure infections by agar dilution method
[1] = system: Stenotrophomonas maltophilia; test: Antibacterial activity against Stenotrophomonas maltophilia obtained from complicated skin and skin structure infections by agar dilution method
Enterobacter amnigenus = test: Antibacterial activity against Enterobacter amnigenus obtained from complicated skin and skin structure infections by agar dilution method; conditions: Lelliottia amnigena
Providencia stuartii = test: Antibacterial activity against Providencia stuartii obtained from complicated skin and skin structure infections by agar dilution method
Citrobacter freundii = test: Antibacterial activity against Citrobacter freundii obtained from complicated skin and skin structure infections by agar dilution method

SMILES	MIC50 (Proteus penneri)	MIC90 (Proteus penneri)	MIC50 (Citrobacter braakii)	MIC90 (Citrobacter braakii)	MIC50 (Enterobacter cloacae)	MIC90 (Enterobacter cloacae)	MIC50 (Klebsiella oxytoca)	MIC90 (Klebsiella oxytoca)	MIC50 (Salmonella)	MIC90 (Salmonella)	MIC50 (Pseudomonas aeruginosa)	MIC90 (Pseudomonas aeruginosa)	MIC50 (Morganella morganii)	MIC90 (Morganella morganii)	MIC50 (Klebsiella aerogenes)	MIC90 (Klebsiella aerogenes)	MIC50 (Proteus mirabilis)	MIC90 (Proteus mirabilis)	MIC50 (Acinetobacter baumannii)	MIC90 (Acinetobacter baumannii)	also measured
CO/N=C(\C(=O)N[C@@H]1C(=O)N2C(C(=O)O)=C(CSc3nc(=O)c(O)nn3C)CS[C@H]12)c1csc(N)n1 [CEFTRIAXONE]	0.06 mg/L (≈ 0.108 µM)	64 mg/L (≈ 115 µM)	0.06 mg/L (≈ 0.108 µM)	64 mg/L (≈ 115 µM)	≤ 0.25 mg/L	64 mg/L (≈ 115 µM)	0.06 mg/L (≈ 0.108 µM)	64 mg/L (≈ 115 µM)	0.06 mg/L (≈ 0.108 µM)	64 mg/L (≈ 115 µM)	64 mg/L (≈ 115 µM)	> 128 mg/L	0.03 mg/L (≈ 0.0541 µM)	> 128 mg/L	0.06 mg/L (≈ 0.108 µM)	64 mg/L (≈ 115 µM)	≤ 0.015 mg/L	4 mg/L (≈ 7.21 µM)	> 32 mg/L	> 128 mg/L	MIC50 (Proteus vulgaris): 0.06 mg/L (≈ 0.108 µM); MIC90 (Proteus vulgaris): 64 mg/L (≈ 115 µM); MIC50 (Serratia marcescens): 0.06 mg/L (≈ 0.108 µM); MIC90 (Serratia marcescens): 64 mg/L (≈ 115 µM); MIC50 (Escherichia coli): 0.06 mg/L (≈ 0.108 µM); MIC90 (Escherichia coli): 0.25 mg/L (≈ 0.451 µM); MIC50 (Klebsiella pneumoniae): 0.12 mg/L (≈ 0.216 µM); MIC90 (Klebsiella pneumoniae): 64 mg/L (≈ 115 µM); MIC50 (Pseudomonas fluorescens): > 32 mg/L; MIC90 (Pseudomonas fluorescens): > 128 mg/L; MIC50 [1]: > 32 mg/L; MIC90 [1]: > 128 mg/L; MIC50 (Enterobacter amnigenus): 0.06 mg/L (≈ 0.108 µM); MIC90 (Enterobacter amnigenus): 64 mg/L (≈ 115 µM); MIC50 (Providencia stuartii): 0.06 mg/L (≈ 0.108 µM); MIC90 (Providencia stuartii): 64 mg/L (≈ 115 µM); MIC50 (Citrobacter freundii): 0.06 mg/L (≈ 0.108 µM); MIC90 (Citrobacter freundii): 64 mg/L (≈ 115 µM)
NCC[C@H](O)C(=O)N[C@@H]1C[C@H](N)[C@@H](O[C@H]2O[C@H](CN)[C@@H](O)[C@H](O)[C@H]2O)[C@H](O)[C@H]1O[C@H]1O[C@H](CO)[C@@H](O)[C@H](N)[C@H]1O [AMIKACIN]	2 mg/L (≈ 3.42 µM)	8 mg/L (≈ 13.7 µM)	2 mg/L (≈ 3.42 µM)	8 mg/L (≈ 13.7 µM)	2 mg/L (≈ 3.42 µM)	8 mg/L (≈ 13.7 µM)	2 mg/L (≈ 3.42 µM)	8 mg/L (≈ 13.7 µM)	2 mg/L (≈ 3.42 µM)	8 mg/L (≈ 13.7 µM)	8 mg/L (≈ 13.7 µM)	64 mg/L (≈ 109 µM)	2 mg/L (≈ 3.42 µM)	4 mg/L (≈ 6.83 µM)	2 mg/L (≈ 3.42 µM)	8 mg/L (≈ 13.7 µM)	4 mg/L (≈ 6.83 µM)	16 mg/L (≈ 27.3 µM)	16 mg/L (≈ 27.3 µM)	> 128 mg/L	MIC50 (Proteus vulgaris): 2 mg/L (≈ 3.42 µM); MIC90 (Proteus vulgaris): 8 mg/L (≈ 13.7 µM); MIC50 (Serratia marcescens): 2 mg/L (≈ 3.42 µM); MIC90 (Serratia marcescens): 8 mg/L (≈ 13.7 µM); MIC50 (Escherichia coli): 2 mg/L (≈ 3.42 µM); MIC90 (Escherichia coli): 4 mg/L (≈ 6.83 µM); MIC (Klebsiella pneumoniae): 1 mg/L (≈ 1.71 µM); MIC50 (Klebsiella pneumoniae): 1 mg/L (≈ 1.71 µM); MIC90 (Klebsiella pneumoniae): 64 mg/L (≈ 109 µM); MIC50 (Pseudomonas fluorescens): 16 mg/L (≈ 27.3 µM); MIC90 (Pseudomonas fluorescens): > 128 mg/L; MIC50 [1]: 16 mg/L (≈ 27.3 µM); MIC90 [1]: > 128 mg/L; MIC50 (Enterobacter amnigenus): 2 mg/L (≈ 3.42 µM); MIC90 (Enterobacter amnigenus): 8 mg/L (≈ 13.7 µM); MIC50 (Providencia stuartii): 2 mg/L (≈ 3.42 µM); MIC90 (Providencia stuartii): 8 mg/L (≈ 13.7 µM); MIC50 (Citrobacter freundii): 2 mg/L (≈ 3.42 µM); MIC90 (Citrobacter freundii): 8 mg/L (≈ 13.7 µM)
